Laboratory results as given in patent publication US20230414499A1, “SUBLINGUAL FILM DOSAGE OF RASAGILINE OR PHARMACEUTICALLY ACCEPTABLE SALT THEREOF, AND PREPARATION METHOD THEREFOR AND USE THEREOF” (priority 2020, published 2023).
Where a name gives a salt, the structure may show the parent alone. Read-outs that look alike come from different tables or passages of the source.

Legend:
[1] = Pharmacokinetic test of Beagle dogs; type: in vivo; details: both sexes, dog, plasma, po, intragastric administration of solution, 2 mg, n=4, read-out: Absolute bioavailability
Procedure: Sublingual film and intragastric administration: A two-period double crossover test was adopted, and the washout period was 1 week.
The dogs were fasted for 16 hours before administration and had free access to water. After 4 hours of administration, the dogs had free access to water, and food was administered. 2 mL of blood was collected from the forelimb or hindlimb vein before administration (0 h) and 0.033 h, 0.083 h, 0.167 h, 0.25 h, 0.333 h, 0.5 h, 0.75 h, 1 h, 1.5 h, 2 h, 3 h, 4 h, 6 h after administration, and placed in heparin sodium anticoagulation tubes. The collected blood samples were centrifuged immediately (1006×g, 10 min), separated to obtain the plasma and stored at −20° C.

[2] = after oral administration; cited from earlier work

C#CCN[C@@H]1CCc2ccccc21 [Rasagiline mesylate]
bioavailability [1]: 11.8% | bioavailability [2]: about 36%
